The values that follow come from US20060204502A1 (priority 2004, published 2006).

Each structure is given as a SMILES string.

The experiment concerns HIF-1α. The experiment in a line: HIF-1α protein immunoblot in hypoxic cells. The class given is cell-based, human. The settings on record: A375. On the procedure: Cell culture and hypoxia treatment: Cells were maintained in DMEM (A375), EMEM (NCTC 2544) or RPMI 1640 (U87MG, U2OS) medium containing 10% fetal calf serum, penicillin (100 U/ml), streptomycin (100 ug/ml), and L-glutamine (2 mM) at 37° C. in 5% CO2/95% air. Cells were passaged two or three times weekly at a ratio between 1:5 and 1:10. Hypoxic exposure was in BBL™ GasPak pouch™ System (Becton Dickinson) that reduce oxygen concentration of less than 2% within 2 hours of incubation at 35° C.
Cells were harvested and washed with ice-cold PBS containing 1 mM sodium orthovanadate, AEBSF 104 mM, aprotinin 0.08 mM, leupeptin 2 mM, bestatin 4 mM, pepstatin A 1.5 mM, E-64 1.4 mM. Cells were then lysed in Triton lysis buffer. The protein concentration was determined using BCA protein assay kit (Pierce). […] The gel was then electroblotted onto a nitrocellulose membrane. Membranes were blocked with 5% nonfat dry milk in PBS containing 0.1% Tween-20 and incubated with antibodies against HIF-1α (1:250 dilution) and HIF-1β (1:1000 dilution) in 5% nonfat dry milk in PBS/0.1% Tween-20 overnight at 4° C. Aliquots of total protein sample (50 ug) were analyzed using antibodies specific for phosphorylated (Thr183/Tyr185) or total p44/p42 MAPK (1:5000 dilution), phosphorylated (Thr180/Tyr182) or total p38 MAPK (1:1000 dilution) and for A3 receptor (1 µg/ml dilution). Filters were washed and incubated for 1 hour at room temperature with peroxidase-conjugated secondary antibodies against mouse and rabbit IgG (1:2000 dilution). […] The membranes were then stripped and reprobed with tubulin (1:250) to ensure equal protein loading.
U0126 was used at 10 and 30 uM as inhibitor of MEK-1 and MEK-2 to prevent p44 and p42 MAPK activation. SB202190 was used at 1 and 10 uM as inhibitor of p38 MAPK.
Densitometry analysis: The intensity of each band in immunoblot assay was quantified using molecular analyst/PC densitometry software (Bio-Rad). […] The data were presented as the mean±S.E., and analyzed by the Student's test.
On the technique in general: Immunoblotting shows a protein as a band on a membrane.

Regarding `CCCn1cc2c(nc(NC(=O)Nc3ccc(OC)cc3)n3nc(-c4ccco4)nc23)n1` [MRE3008F20, 5-[[(4-Methoxyphenyl)amino]carbonyl]amino-8-propyl-2-(2-furyl)-pyrazolo[4,3-e]1,2,4-triazolo[1,5-c]pyrimidine], the “effect on adenosine-induced HIF-1α protein expression” value (hypoxia 4 hours, adenosine 100 μM, antagonist 100 nM) was “abrogated”. Moreover, the “effect on Cl-IB-MECA-induced HIF-1α modulation” value (hypoxia, antagonist 10 and 100 nM, Cl-IB-MECA 10 and 100 nM) is given as “able to abrogate the effect of Cl-IB-MECA”. Further, for the setting “Homo sapiens, A-375, read-out: IC50, inhibition of HIF-1α protein increase induced by 10 nM Cl-IB-MECA, hypoxia 4 hours, 0.3-30 nM”, the IC50 was determined as 0.9 ± 0.08 nM.

The term IC50 denotes the point on the concentration scale where inhibition reaches its midpoint.
